From ChEMBL document CHEMBL1150977, “A quantitative analysis of kinase inhibitor selectivity” (Nat Biotechnol, 2008)

molecular target: T1, Serine/threonine-protein kinase D1 (Homo sapiens, UniProt Q15139)
T1 sequence (Q15139 whole entry): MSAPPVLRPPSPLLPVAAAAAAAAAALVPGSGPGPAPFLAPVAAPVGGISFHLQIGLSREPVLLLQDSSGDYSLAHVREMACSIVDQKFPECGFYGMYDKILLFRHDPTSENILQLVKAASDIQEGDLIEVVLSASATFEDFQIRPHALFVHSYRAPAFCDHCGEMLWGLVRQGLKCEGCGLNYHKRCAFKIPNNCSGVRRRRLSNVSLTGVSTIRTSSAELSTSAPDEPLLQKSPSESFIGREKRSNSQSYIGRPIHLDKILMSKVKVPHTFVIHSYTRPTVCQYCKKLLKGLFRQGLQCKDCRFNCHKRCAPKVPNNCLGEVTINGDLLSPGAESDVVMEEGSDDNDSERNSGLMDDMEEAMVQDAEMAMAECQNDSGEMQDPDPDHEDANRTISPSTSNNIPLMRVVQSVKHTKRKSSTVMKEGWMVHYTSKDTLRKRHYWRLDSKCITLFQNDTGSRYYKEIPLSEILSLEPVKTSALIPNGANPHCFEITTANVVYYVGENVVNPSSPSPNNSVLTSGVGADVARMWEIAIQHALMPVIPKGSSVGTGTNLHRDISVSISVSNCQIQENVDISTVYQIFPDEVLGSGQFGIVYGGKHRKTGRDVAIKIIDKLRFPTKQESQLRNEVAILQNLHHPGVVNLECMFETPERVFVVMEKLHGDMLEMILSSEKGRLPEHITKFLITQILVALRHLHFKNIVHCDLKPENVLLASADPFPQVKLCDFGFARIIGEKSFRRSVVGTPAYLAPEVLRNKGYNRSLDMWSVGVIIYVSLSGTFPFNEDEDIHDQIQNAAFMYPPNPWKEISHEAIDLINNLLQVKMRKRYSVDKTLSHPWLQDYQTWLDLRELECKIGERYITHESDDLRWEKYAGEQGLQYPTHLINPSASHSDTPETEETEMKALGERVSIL

| Compound | Kd [µM] |
| --- | --- |
| CCOc1cc2ncc(C#N)c(Nc3ccc(F)c(Cl)c3)c2cc1NC(=O)/C=C/CN(C)C [PELITINIB] | > 10 |
| Oc1ccc(-c2nc(-c3ccncc3)c(-c3ccc(F)cc3)[nH]2)cc1 [SB-202190] | > 10 |
| COCC(=O)NC/C=C/c1ccc2ncnc(Nc3ccc(Oc4ccc(C)nc4)c(C)c3)c2c1 [CP-724714] | > 10 |

molecular target: Serine/threonine-protein kinase 33 (Homo sapiens, UniProt Q9BYT3)
Sequence (Q9BYT3 whole entry): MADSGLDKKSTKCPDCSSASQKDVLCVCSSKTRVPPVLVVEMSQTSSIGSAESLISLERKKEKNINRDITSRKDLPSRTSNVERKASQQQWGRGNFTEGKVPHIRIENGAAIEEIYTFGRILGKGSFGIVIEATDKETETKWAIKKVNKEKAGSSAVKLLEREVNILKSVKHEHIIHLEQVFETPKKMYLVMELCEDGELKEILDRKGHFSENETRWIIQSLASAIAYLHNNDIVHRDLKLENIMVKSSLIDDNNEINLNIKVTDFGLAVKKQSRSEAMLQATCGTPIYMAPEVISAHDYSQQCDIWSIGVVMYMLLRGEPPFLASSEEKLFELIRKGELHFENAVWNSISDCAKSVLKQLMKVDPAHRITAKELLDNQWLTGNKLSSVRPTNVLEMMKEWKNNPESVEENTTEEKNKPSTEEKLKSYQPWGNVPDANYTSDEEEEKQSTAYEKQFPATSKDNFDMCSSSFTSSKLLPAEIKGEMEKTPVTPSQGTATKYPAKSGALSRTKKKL

| Compound | Kd [µM] |
| --- | --- |
| Nc1nc(Nc2ccc(S(N)(=O)=O)cc2)nn1C(=O)c1c(F)cccc1F [JNJ-7706621] | > 10 |
| Oc1ccc(-c2nc(-c3ccncc3)c(-c3ccc(F)cc3)[nH]2)cc1 [SB-202190] | > 10 |
| COCC(=O)NC/C=C/c1ccc2ncnc(Nc3ccc(Oc4ccc(C)nc4)c(C)c3)c2c1 [CP-724714] | > 10 |
| NC(=O)c1ccc(-c2nc(-c3ccc4c(c3)OCO4)c(-c3ccccn3)[nH]2)cc1 [SB-431542] | > 10 |

molecular target: Death-associated protein kinase 2 (Homo sapiens, UniProt Q9UIK4)
Sequence (Q9UIK4 whole entry): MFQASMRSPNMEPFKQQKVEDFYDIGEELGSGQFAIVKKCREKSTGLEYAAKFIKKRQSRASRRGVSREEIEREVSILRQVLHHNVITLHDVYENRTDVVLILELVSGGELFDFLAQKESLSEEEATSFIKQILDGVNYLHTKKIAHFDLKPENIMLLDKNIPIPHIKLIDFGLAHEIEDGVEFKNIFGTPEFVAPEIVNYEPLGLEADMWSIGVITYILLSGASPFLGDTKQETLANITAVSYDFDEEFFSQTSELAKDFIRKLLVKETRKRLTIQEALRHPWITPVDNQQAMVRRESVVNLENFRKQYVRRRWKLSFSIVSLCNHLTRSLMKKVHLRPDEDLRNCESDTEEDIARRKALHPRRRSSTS

| Compound | Kd [µM] |
| --- | --- |
| CCOc1cc2ncc(C#N)c(Nc3ccc(F)c(Cl)c3)c2cc1NC(=O)/C=C/CN(C)C [PELITINIB] | > 10 |
| Nc1nc(Nc2ccc(S(N)(=O)=O)cc2)nn1C(=O)c1c(F)cccc1F [JNJ-7706621] | > 10 |
| Oc1ccc(-c2nc(-c3ccncc3)c(-c3ccc(F)cc3)[nH]2)cc1 [SB-202190] | > 10 |
| COCC(=O)NC/C=C/c1ccc2ncnc(Nc3ccc(Oc4ccc(C)nc4)c(C)c3)c2c1 [CP-724714] | > 10 |
| NC(=O)c1ccc(-c2nc(-c3ccc4c(c3)OCO4)c(-c3ccccn3)[nH]2)cc1 [SB-431542] | > 10 |

molecular target: T2, Serine/threonine-protein kinase Nek2 (Homo sapiens, UniProt P51955)
T2 sequence (P51955 whole entry): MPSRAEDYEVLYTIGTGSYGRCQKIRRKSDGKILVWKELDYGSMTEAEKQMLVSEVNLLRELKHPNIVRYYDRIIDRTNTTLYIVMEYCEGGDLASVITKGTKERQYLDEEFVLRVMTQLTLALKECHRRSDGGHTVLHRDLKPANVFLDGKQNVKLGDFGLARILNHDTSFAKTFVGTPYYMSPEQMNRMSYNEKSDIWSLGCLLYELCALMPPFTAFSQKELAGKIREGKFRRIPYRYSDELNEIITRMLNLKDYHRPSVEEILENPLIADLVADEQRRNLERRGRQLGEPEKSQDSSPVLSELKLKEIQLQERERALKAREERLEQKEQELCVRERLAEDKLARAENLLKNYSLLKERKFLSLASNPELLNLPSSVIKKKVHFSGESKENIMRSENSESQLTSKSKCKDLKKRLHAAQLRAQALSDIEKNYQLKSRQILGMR

| Compound | Kd [µM] |
| --- | --- |
| Oc1ccc(-c2nc(-c3ccncc3)c(-c3ccc(F)cc3)[nH]2)cc1 [SB-202190] | > 10 |
| COCC(=O)NC/C=C/c1ccc2ncnc(Nc3ccc(Oc4ccc(C)nc4)c(C)c3)c2c1 [CP-724714] | > 10 |
| NC(=O)c1ccc(-c2nc(-c3ccc4c(c3)OCO4)c(-c3ccccn3)[nH]2)cc1 [SB-431542] | > 10 |

molecular target: Mitogen-activated protein kinase kinase kinase 11 (Homo sapiens, UniProt Q16584)
Sequence (Q16584 whole entry): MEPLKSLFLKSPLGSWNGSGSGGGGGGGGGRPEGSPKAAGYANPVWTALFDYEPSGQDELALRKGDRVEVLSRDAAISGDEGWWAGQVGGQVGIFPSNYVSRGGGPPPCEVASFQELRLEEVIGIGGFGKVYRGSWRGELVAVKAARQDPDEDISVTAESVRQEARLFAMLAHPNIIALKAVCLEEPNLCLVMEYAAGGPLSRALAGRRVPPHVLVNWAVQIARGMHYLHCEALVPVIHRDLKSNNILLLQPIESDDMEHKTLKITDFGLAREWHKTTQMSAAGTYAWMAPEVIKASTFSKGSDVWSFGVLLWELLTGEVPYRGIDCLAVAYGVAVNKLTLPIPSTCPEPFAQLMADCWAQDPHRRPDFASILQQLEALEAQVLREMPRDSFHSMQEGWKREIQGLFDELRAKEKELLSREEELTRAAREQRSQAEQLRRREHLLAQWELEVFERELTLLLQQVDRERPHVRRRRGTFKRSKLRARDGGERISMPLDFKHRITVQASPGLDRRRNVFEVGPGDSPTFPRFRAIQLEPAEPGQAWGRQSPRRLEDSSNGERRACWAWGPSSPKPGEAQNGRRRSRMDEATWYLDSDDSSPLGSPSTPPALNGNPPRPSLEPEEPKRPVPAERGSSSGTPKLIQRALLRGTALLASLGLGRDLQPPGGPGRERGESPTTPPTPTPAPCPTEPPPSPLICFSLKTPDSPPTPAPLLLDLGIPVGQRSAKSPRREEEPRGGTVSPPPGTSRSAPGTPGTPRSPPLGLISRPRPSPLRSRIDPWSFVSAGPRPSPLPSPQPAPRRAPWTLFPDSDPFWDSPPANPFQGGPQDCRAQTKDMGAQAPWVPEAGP

| Compound | Kd [µM] |
| --- | --- |
| Nc1nc(Nc2ccc(S(N)(=O)=O)cc2)nn1C(=O)c1c(F)cccc1F [JNJ-7706621] | > 10 |
| Oc1ccc(-c2nc(-c3ccncc3)c(-c3ccc(F)cc3)[nH]2)cc1 [SB-202190] | > 10 |
| NC(=O)c1ccc(-c2nc(-c3ccc4c(c3)OCO4)c(-c3ccccn3)[nH]2)cc1 [SB-431542] | > 10 |
| CCN1CCN(Cc2ccc(NC(=O)Nc3ccc(Oc4cc(NC)ncn4)cc3)cc2C(F)(F)F)CC1 [AST-487] | > 10 |

molecular target: T3, Aurora kinase A (Homo sapiens, UniProt O14965)
T3 sequence (O14965 whole entry): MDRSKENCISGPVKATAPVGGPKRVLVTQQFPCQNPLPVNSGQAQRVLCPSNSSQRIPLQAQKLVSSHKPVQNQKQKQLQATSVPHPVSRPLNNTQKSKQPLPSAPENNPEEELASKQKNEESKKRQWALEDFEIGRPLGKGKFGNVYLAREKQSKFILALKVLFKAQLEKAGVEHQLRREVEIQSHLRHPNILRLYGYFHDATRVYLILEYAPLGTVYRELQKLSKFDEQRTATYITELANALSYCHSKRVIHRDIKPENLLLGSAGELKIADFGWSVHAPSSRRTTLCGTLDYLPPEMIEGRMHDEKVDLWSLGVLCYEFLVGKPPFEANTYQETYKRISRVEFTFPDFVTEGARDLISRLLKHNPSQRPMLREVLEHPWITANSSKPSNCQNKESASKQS

| Compound | Kd [µM] |
| --- | --- |
| CCOc1cc2ncc(C#N)c(Nc3ccc(F)c(Cl)c3)c2cc1NC(=O)/C=C/CN(C)C [PELITINIB] | > 10 |
| Oc1ccc(-c2nc(-c3ccncc3)c(-c3ccc(F)cc3)[nH]2)cc1 [SB-202190] | > 10 |
| COCC(=O)NC/C=C/c1ccc2ncnc(Nc3ccc(Oc4ccc(C)nc4)c(C)c3)c2c1 [CP-724714] | > 10 |
| NC(=O)c1ccc(-c2nc(-c3ccc4c(c3)OCO4)c(-c3ccccn3)[nH]2)cc1 [SB-431542] | > 10 |

molecular target: Cyclin-dependent kinase 8 (Homo sapiens, UniProt P49336)
Sequence (P49336 whole entry): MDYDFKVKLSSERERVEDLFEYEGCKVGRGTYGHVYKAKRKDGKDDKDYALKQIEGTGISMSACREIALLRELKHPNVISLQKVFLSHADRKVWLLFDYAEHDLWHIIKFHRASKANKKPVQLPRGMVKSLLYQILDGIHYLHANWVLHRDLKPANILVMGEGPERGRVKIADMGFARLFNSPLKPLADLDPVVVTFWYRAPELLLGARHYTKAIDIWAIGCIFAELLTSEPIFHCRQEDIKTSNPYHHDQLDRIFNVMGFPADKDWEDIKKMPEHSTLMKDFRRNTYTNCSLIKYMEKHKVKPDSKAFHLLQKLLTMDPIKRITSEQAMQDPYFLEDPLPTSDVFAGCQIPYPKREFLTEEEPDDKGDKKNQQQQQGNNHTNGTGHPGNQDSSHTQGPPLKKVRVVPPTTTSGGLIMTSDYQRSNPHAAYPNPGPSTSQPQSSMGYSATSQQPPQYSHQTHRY

| Compound | Kd [µM] |
| --- | --- |
| CCOc1cc2ncc(C#N)c(Nc3ccc(F)c(Cl)c3)c2cc1NC(=O)/C=C/CN(C)C [PELITINIB] | > 10 |
| Oc1ccc(-c2nc(-c3ccncc3)c(-c3ccc(F)cc3)[nH]2)cc1 [SB-202190] | > 10 |
| NC(=O)c1ccc(-c2nc(-c3ccc4c(c3)OCO4)c(-c3ccccn3)[nH]2)cc1 [SB-431542] | > 10 |

molecular target: T4, Muscle, skeletal receptor tyrosine-protein kinase (Homo sapiens, UniProt O15146)
T4 sequence (O15146 whole entry): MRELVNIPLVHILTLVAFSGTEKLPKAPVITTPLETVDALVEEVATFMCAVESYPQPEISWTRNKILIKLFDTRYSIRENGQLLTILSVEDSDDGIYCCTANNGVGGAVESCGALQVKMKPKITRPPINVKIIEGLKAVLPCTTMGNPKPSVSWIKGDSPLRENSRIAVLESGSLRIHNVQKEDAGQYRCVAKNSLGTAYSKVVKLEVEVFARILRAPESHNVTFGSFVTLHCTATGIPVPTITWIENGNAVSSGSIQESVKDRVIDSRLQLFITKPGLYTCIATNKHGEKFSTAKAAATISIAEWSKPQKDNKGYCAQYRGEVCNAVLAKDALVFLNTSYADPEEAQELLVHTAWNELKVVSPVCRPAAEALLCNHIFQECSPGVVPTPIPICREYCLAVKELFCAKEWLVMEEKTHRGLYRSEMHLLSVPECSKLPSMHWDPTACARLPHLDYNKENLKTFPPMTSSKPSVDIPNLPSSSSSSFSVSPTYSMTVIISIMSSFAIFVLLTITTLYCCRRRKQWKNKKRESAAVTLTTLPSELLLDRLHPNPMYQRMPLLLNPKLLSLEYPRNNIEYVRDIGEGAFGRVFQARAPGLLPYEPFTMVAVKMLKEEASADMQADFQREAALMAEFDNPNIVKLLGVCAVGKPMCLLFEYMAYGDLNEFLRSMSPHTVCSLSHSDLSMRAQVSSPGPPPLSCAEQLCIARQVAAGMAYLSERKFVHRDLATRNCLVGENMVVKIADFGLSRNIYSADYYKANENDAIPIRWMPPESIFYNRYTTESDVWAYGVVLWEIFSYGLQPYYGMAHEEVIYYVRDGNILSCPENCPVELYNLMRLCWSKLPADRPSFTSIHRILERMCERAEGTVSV

| Compound | Kd [µM] |
| --- | --- |
| CCOc1cc2ncc(C#N)c(Nc3ccc(F)c(Cl)c3)c2cc1NC(=O)/C=C/CN(C)C [PELITINIB] | > 10 |
| Nc1nc(Nc2ccc(S(N)(=O)=O)cc2)nn1C(=O)c1c(F)cccc1F [JNJ-7706621] | > 10 |
| Oc1ccc(-c2nc(-c3ccncc3)c(-c3ccc(F)cc3)[nH]2)cc1 [SB-202190] | > 10 |
| COCC(=O)NC/C=C/c1ccc2ncnc(Nc3ccc(Oc4ccc(C)nc4)c(C)c3)c2c1 [CP-724714] | > 10 |
| NC(=O)c1ccc(-c2nc(-c3ccc4c(c3)OCO4)c(-c3ccccn3)[nH]2)cc1 [SB-431542] | > 10 |

molecular target: Mitogen-activated protein kinase 6 (Homo sapiens, UniProt Q16659)
Sequence (Q16659 whole entry): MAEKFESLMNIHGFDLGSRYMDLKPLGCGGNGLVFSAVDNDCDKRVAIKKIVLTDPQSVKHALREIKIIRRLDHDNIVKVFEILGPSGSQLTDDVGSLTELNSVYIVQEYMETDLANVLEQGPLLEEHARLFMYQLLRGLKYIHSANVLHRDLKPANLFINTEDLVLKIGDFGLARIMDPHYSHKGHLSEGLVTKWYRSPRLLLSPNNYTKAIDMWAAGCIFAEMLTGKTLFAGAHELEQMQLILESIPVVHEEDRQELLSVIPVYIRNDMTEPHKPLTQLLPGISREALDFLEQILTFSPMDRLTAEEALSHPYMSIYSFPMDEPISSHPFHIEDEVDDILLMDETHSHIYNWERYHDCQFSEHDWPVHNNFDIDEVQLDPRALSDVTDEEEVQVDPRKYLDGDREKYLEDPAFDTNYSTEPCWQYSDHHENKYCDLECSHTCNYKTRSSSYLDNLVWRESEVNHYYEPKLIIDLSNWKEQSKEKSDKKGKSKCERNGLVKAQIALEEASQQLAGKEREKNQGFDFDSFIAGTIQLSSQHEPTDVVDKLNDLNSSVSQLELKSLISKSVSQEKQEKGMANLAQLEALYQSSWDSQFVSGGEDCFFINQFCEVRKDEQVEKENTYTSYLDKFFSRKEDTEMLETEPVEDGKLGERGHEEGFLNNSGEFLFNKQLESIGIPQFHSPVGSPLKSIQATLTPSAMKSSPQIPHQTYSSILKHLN

| Compound | Kd [µM] |
| --- | --- |
| CCOc1cc2ncc(C#N)c(Nc3ccc(F)c(Cl)c3)c2cc1NC(=O)/C=C/CN(C)C [PELITINIB] | > 10 |
| Oc1ccc(-c2nc(-c3ccncc3)c(-c3ccc(F)cc3)[nH]2)cc1 [SB-202190] | > 10 |
| COCC(=O)NC/C=C/c1ccc2ncnc(Nc3ccc(Oc4ccc(C)nc4)c(C)c3)c2c1 [CP-724714] | > 10 |
| NC(=O)c1ccc(-c2nc(-c3ccc4c(c3)OCO4)c(-c3ccccn3)[nH]2)cc1 [SB-431542] | > 10 |

molecular target: Serine/threonine-protein kinase 10 (Homo sapiens, UniProt O94804)
Sequence (O94804 whole entry): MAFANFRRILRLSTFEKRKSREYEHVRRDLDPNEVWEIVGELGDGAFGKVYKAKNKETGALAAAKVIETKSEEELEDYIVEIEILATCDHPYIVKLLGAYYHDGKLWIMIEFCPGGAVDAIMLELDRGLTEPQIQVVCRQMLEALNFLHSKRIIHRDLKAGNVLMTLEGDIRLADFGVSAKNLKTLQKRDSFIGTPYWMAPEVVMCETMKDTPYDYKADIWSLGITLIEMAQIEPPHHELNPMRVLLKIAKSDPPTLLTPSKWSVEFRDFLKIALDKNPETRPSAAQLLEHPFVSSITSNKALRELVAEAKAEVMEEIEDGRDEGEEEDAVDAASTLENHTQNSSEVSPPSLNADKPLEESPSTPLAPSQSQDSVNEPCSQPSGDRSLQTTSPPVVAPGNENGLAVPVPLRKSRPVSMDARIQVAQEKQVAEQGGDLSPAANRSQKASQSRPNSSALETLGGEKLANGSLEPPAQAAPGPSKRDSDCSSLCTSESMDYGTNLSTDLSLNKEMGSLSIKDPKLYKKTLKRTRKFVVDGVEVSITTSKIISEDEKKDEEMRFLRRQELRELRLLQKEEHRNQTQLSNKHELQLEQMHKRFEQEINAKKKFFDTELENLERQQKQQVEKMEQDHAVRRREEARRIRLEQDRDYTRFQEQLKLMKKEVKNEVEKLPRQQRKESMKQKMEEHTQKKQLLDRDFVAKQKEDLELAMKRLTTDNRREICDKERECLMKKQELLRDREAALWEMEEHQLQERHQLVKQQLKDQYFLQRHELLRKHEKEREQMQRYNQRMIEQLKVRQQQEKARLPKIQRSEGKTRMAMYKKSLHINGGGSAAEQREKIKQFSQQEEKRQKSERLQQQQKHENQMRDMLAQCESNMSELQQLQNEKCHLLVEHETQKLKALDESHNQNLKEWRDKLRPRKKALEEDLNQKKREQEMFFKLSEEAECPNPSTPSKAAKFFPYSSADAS

| Compound | Kd [µM] |
| --- | --- |
| Oc1ccc(-c2nc(-c3ccncc3)c(-c3ccc(F)cc3)[nH]2)cc1 [SB-202190] | > 10 |
| COCC(=O)NC/C=C/c1ccc2ncnc(Nc3ccc(Oc4ccc(C)nc4)c(C)c3)c2c1 [CP-724714] | > 10 |
| NC(=O)c1ccc(-c2nc(-c3ccc4c(c3)OCO4)c(-c3ccccn3)[nH]2)cc1 [SB-431542] | > 10 |
